In PMC5355811 (Nature Communications, 2017):
Where “and” joins values, the source holds several entries; their conditions need not be identical. Identical values can stand only once. Like-named read-outs stand apart in the source and are kept apart here.

Columns and labels:
Type in all cases: cell-based
[1] = system: Ba/F3 cells of EGFR-del19; experiment: Drug sensitivity screening at 100 nM, Ba/F3 EGFR-del19; conditions: for Relative cell viability (% of DMSO control) in del19 Ba/F3 cells: 100 nM; for viability at 0.1 µM: Mus musculus, BaF3, 72 h, read-out: Relative cell viability (ratio to DMSO control), del19
Description: (§1) After the incubation, cell viability was measured using CellTiter-Glo assay. The relative cell viability was calculated as a ratio of each value to that of the DMSO control.

[2] = system: Ba/F3 cells of EGFR-T790M/del19; experiment: Drug sensitivity screening at 100 nM, Ba/F3 EGFR-T790M/del19; conditions: for Relative cell viability (% of DMSO control): 100 nM; for viability at 0.1 µM: Mus musculus, BaF3, 72 h, read-out: Relative cell viability (ratio to DMSO control), del19/T790M
Description: as §1

[3] = system: Ba/F3 cells of EGFR-C797S/T790M/del19; experiment: Drug sensitivity screening at 100 nM, Ba/F3 EGFR-C797S/T790M/del19; conditions: Mus musculus, BaF3, 72 h, 100 nM inhibitor, 72 h, DMSO = 100; mean of three independent experiments (Fig. 1a data)
Description: as §1

[4] = 100 nM inhibitor, 72 h, DMSO = 100, mean of three independent experiments (Fig. 1a data)

SMILES	Relative cell viability (ratio to DMSO control), del19 [1, 4]	Relative cell viability (% of DMSO control) in del19 Ba/F3 cells ([1]; 72 h, DMSO = 100, experiment 1)	Relative cell viability (% of DMSO control) in del19 Ba/F3 cells ([1]; 72 h, DMSO = 100, experiment 2)	Relative cell viability (% of DMSO control) in del19 Ba/F3 cells ([1]; 72 h, DMSO = 100, experiment 3)	Relative cell viability (ratio to DMSO control), del19/T790M [2, 4]	Relative cell viability (% of DMSO control) ([2]; 72 h, DMSO = 100, experiment 1)	Relative cell viability (% of DMSO control) ([2]; 72 h, DMSO = 100, experiment 2)	Relative cell viability (% of DMSO control) ([2]; 72 h, DMSO = 100, experiment 3)	viability at 0.1 µM [1, 4] [%]	viability at 0.1 µM [2, 4] [%]	viability at 0.1 µM [3] [%]	viability at 0.1 µM [1] [%]	viability at 0.1 µM [2] [%]
C=CCNC1=C2C[C@@H](C)C[C@H](OC)[C@H](O)[C@@H](C)/C=C(\C)[C@H](OC(N)=O)[C@@H](OC)/C=C\C=C(/C)C(=O)NC(=CC1=O)C2=O [17-AAG]	54.15 and 54.1494	47.4299	59.7934	55.225	63.86	65.6049	64.9663	61.0089					
Nc1ncnc2c1c(-c1cccc(OCc3ccccc3)c1)cn2[C@H]1C[C@@H](CN2CCC2)C1 [AEW541]		86.142	111.013	118.474					105	102	132		
Cn1cnc2c(F)c(Nc3ccc(Br)cc3Cl)c(C(=O)NOCCO)cc21 [AZD6244]		44.8792	57.317	50.3776		105.003	111.809	110.93	50.9	109	134		
CCc1cc2c(cc1N1CCC(N3CCOCC3)CC1)C(C)(C)c1[nH]c3cc(C#N)ccc3c1C2=O [Alectinib, alectinib]		98.9355	105.786	113.209		98.2015	127.038	121.189	106	115	146		
COC(=O)c1ccc2c(c1)NC(=O)/C2=C(\Nc1ccc(N(C)C(=O)CN2CCN(C)CC2)cc1)c1ccccc1 [BIBF1120]		91.4241	97.5116	102.157					97	91.1	108		
C[C@]12O[C@H](C[C@]1(O)CO)n1c3ccccc3c3c4c(c5c6ccccc6n2c5c31)CNC4=O [CEP701]												2.57	7.99
Cc1nc2ccc(-n3ncc(C(=O)c4cc5ccccc5[nH]4)c3N)cc2[nH]1 [CH5183284]	111.23 and 111.228	100.01	123.157	110.518	100.76 and 100.762	87.4669	110.946	103.872					
COc1cc2nccc(Oc3ccc(NC(=O)NC4CC4)c(Cl)c3)c2cc1C(N)=O [E7080]	104.13 and 104.131	87.8792	107.525	116.989	118.49 and 118.491	107.332	130.309	117.831					
CO[C@H]1C[C@@H]2CC[C@@H](C)[C@@](O)(O2)C(=O)C(=O)N2CCCC[C@H]2C(=O)O[C@H]([C@H](C)C[C@@H]2CC[C@@H](OCCO)[C@H](OC)C2)CC(=O)[C@H](C)/C=C(\C)[C@@H](O)[C@@H](OC)C(=O)[C@H](C)C[C@H](C)/C=C/C=C/C=C/1C [Everolimus, everolimus]		25.026	29.0998	35.5918		31.3636	39.0956	30.3952	29.9	33.6	28		
COc1cc2c(Oc3ccc(NC(=O)C4(C(=O)Nc5ccc(F)cc5)CC4)cc3F)ccnc2cc1OCCCN1CCOCC1 [Foretinib, foretinib]		89.6065	99.5833	99.8956		105.61	122.653	104.986	96.4	111	135		
CS(=O)(=O)N1CCN(Cc2cc3nc(-c4cccc5[nH]ncc45)nc(N4CCOCC4)c3s2)CC1 [GDC0941]		34.6965	39.6485	45.9129		45.3105	67.5344	51.7458	40.1	54.9	66.1		
Cc1ccc(NC(=O)c2ccc(CN3CCN(C)CC3)cc2)cc1Nc1nccc(-c2cccnc2)n1 [Imatinib, imatinib]											129		
CS(=O)(=O)CCNCc1ccc(-c2ccc3ncnc(Nc4ccc(OCc5cccc(F)c5)c(Cl)c4)c3c2)o1 [Lapatinib, lapatinib]												128	102
C[C@H]1Oc2cc(cnc2N)-c2c(nn(C)c2C#N)CN(C)C(=O)c2ccc(F)cc21 [Lorlatinib, lorlatinib]		99.5381	109.489	108.837		93.1744	112.187	104.505	106	103	126		
O=C(C(c1ccccc1)c1ccccc1)N1CCN(CC(O)COc2cccc3ncccc23)CC1 (stereo not shown) [MS209]	105.44	97.9213	113.609	104.789	109.461	106.534	123.336	98.5141					
Cc1[nH]c(/C=C2\C(=O)Nc3ccc(S(=O)(=O)Cc4c(Cl)cccc4Cl)cc32)c(C)c1C(=O)N1CCC[C@@H]1CN1CCCC1 [PHA665752]		109.731	119.895	113.452					114	110	136		
CO[C@H]1C[C@@H]2CC[C@@H](C)[C@@](O)(O2)C(=O)C(=O)N2CCCC[C@H]2C(=O)O[C@H]([C@H](C)C[C@@H]2CC[C@@H](O)[C@H](OC)C2)CC(=O)[C@H](C)/C=C(\C)[C@@H](O)[C@@H](OC)C(=O)[C@H](C)C[C@H](C)/C=C/C=C/C=C/1C [Rapamycin, rapamycin]		26.4621	39.8271	36.4731		30.0228	36.7261	31.8573	34.3	32.9	27.6		
COc1cc(N2CCC(N3CCN(C)CC3)CC2)ccc1Nc1ncc(Cl)c(Nc2ccccc2S(=O)(=O)C(C)C)n1 [TAE684]									105	98.1	110		
CC(=O)Nc1cccc(-n2c(=O)n(C3CC3)c(=O)c3c(Nc4ccc(I)cc4F)n(C)c(=O)c(C)c32)c1 [Trametinib, trametinib]		0.7444	0.954	0.9176		11.0855	11.5677	12.1404	0.872	11.6	44.2		
COc1cc2c(Nc3ccc(Br)cc3F)ncnc2cc1OCC1CCN(C)CC1 [Vandetanib, vandetanib]		1.287	1.585	1.984		95.2444	114.653	98.1331	1.62	103	130		
